Data from publication PMC6544300, “Mechanism of the efflux transport of demethoxycurcumin-O-glucuronides in HeLa cells stably transfected with UDP-glucuronosyltransferase 1A1” (PLoS ONE, 2019).

Columns and labels:
UGT1A1 = biological target: T1, UGT1A1 (Homo sapiens, UniProt P22309); experiment: Chemical inhibition of DMC-O-glucuronidation by UGT1A1 inhibitors in HeLa1A1 cell lysate; assay type: biochemical; parameters: expressed in transfected cells; host or cells: HeLa cells stably overexpressing UGT1A1 (HeLa1A1), used as cell lysate; settings: DMC 4 μM, HeLa1A1 cell lysate 2.3 mg/mL
T1 sequence (P22309 26-533): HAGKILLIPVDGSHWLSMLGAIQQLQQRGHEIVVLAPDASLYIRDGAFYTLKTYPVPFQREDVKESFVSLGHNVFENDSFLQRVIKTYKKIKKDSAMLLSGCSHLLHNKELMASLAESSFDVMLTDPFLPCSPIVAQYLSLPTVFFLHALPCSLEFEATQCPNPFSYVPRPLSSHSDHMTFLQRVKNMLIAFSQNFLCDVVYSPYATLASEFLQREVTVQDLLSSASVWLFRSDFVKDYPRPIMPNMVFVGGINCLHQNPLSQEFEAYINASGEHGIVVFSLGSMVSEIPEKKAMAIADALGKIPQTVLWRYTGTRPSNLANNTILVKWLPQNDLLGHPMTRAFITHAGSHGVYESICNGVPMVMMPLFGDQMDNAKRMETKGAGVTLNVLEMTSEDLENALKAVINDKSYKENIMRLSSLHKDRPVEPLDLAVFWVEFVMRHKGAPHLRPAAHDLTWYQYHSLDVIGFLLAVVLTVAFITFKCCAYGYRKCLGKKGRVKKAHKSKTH
Method: The glucuronidation assay was performed as previously described. Briefly, alamethicin (22 μg/mL), D-saccharic-1,4-lactone (4.4 mM), MgCl2 (0.88 mM), UGT1A1 (1.0 mg/mL) or HeLa1A1 cell lysates (2.3 mg/mL) and DMC (0.5 to 40 μM) were mixed in a 50 mM Tris buffer (pH 7.4). After a preincubation at 37°C for 5 min, UDPGA (3.5 mM) was added to the incubation system, and the mixture was further incubated. After 30 min, the reactions were terminated by the addition of ice-cold acetonitrile (200 μL). The mixed samples were centrifuged at 13,800 x g for 10 min, and the supernatant was analyzed using UHPLC.
Analyses of chemical inhibition and activity correlations were performed as two additional independent assays to determine the roles of the UGT1A1 enzyme. In these studies, nilotinib (10 μM), glycyrrhetinic acid (20 μM) and protopanaxatriol (500 μM) were used as UGT1A1 inhibitors to investigate the metabolic activities of DMC (4 μM). The incubation conditions were the same as those used for the glucuronidation activity assays.

MRP1 = biological target: T2, MRP1 (Homo sapiens, UniProt P33527); experiment: shRNA-mediated MRP1 knock-down, glucuronide excretion in HeLa1A1 cells; assay type: cell-based; settings: DMC 4 μM; for decrease of efflux excretion rate / decrease of metabolized fraction: MRP1 knock-down; for decrease of efflux excretion rate: Fig 9C; for decrease of metabolized fraction: Fig 9E; for increase in intracellular level: MRP1 silencing, Fig 9D
T2 construct: BCRP, MRP1, MRP3, and MRP4 were detected in both wild-type HeLa and HeLa1A1 cells; endogenous in cells; host or cells: HeLa1A1 cells (MRP1-shRNA versus scrambled shRNA)
T2 sequence (P33527 whole entry): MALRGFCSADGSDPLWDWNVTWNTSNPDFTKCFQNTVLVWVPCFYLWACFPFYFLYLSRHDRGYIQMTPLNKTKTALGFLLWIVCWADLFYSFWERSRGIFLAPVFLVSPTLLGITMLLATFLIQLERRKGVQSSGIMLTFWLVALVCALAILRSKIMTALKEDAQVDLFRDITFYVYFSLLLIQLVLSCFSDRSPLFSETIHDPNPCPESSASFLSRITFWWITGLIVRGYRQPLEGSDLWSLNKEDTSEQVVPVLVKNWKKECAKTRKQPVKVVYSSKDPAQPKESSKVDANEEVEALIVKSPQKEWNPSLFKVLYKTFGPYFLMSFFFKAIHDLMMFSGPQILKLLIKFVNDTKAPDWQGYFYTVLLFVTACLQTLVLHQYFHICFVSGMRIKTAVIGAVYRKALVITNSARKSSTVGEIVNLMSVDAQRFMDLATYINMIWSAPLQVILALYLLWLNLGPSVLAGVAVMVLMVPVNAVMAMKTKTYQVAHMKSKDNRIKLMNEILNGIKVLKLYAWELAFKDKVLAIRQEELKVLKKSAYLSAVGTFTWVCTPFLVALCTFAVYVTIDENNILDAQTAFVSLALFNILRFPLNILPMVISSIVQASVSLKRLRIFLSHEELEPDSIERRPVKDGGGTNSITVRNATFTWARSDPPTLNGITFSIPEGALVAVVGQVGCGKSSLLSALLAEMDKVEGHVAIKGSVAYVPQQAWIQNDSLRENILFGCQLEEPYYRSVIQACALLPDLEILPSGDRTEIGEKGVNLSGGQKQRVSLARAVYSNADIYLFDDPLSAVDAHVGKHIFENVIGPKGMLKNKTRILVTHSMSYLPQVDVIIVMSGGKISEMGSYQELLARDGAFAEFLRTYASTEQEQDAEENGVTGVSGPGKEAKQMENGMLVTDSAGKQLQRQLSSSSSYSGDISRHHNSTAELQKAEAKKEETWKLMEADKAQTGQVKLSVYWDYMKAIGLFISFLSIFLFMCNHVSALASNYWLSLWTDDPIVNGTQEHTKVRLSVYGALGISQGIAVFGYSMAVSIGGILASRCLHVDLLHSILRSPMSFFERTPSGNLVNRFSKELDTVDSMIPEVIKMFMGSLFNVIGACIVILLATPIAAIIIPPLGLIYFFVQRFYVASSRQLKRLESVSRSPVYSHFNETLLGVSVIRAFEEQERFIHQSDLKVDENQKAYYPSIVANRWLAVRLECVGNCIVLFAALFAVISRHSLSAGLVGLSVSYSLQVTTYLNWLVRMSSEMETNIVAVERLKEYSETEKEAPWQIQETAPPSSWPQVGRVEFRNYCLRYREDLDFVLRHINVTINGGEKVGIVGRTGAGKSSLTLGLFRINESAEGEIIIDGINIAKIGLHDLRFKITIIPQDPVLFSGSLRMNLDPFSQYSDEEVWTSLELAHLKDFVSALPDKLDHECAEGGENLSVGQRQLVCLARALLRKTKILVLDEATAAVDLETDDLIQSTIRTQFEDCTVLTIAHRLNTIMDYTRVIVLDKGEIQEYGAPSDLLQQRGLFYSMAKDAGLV
Method: (§1) Prior to the assays, HeLa1A1 cells were washed twice with prewarmed (37°C) Hank’s balanced salt solution (HBSS, pH = 7.4). Subsequently, HeLa1A1 cells were pretreated and incubated with DMC (2, 4 or 8 μM) and dissolved in 2 mL of HBSS. The sampling times were selected to ensure that the plots of the amount excreted versus time remained in the linear range. At each time point (0.5, 1.0, 1.5 and 2.0 h), 200 μL of incubation solutions were collected from each well, and an equal volume of loading media was used to replenish each well. Then, the collected samples were each mixed with 100 μL of ice-cold acetonitrile. The supernatants (8.0 μL) were subjected to an ultra high-performance liquid chromatography (UHPLC) analysis after centrifugation (10 min at 13,800 g).
(§2) Furthermore, the excretion rates of generated glucuronides were calculated using Eq (1). In addition, the fraction metabolized (fmet) value was defined as the fraction of the dose metabolized based on Eq (2). V represents the volume of the incubation medium, C represents the concentration of excreted glucuronides, and t represents the incubation time.
(§3) The shRNA plasmids targeting the efflux transporters BCRP, MRP1, MRP3 and MRP4 were constructed using previously described methods. HeLa1A1 cells were transiently transfected with the corresponding shRNA plasmids. The procedures for the establishment of HeLa1A1-BCRP-shRNA cells, HeLa1A1-MRP1-shRNA cells, HeLa1A1-MRP3-shRNA cells and HeLa1A1-MRP4-shRNA cells are detailed in our previous publication. Moreover, levels of the BCRP, MRP1, MRP3 and MRP4 proteins in these constructed HeLa1A1 cells were determined by western blotting assays, as described previously.

MRP3 = biological target: T3, MRP3 (Homo sapiens, UniProt O15438); experiment: shRNA-mediated MRP3 knock-down, glucuronide excretion in HeLa1A1 cells; assay type: cell-based; settings: DMC 4 μM; for decrease of fmet value: MRP3 partial knock-down, Fig 10E; for decrease in efflux excretion clearance / increase in intracellular level: MRP3 silencing; for decrease in efflux excretion clearance: Fig 10C; for increase in intracellular level: Fig 10D
T3 construct: BCRP, MRP1, MRP3, and MRP4 were detected in both wild-type HeLa and HeLa1A1 cells; endogenous in cells; host or cells: HeLa1A1 cells (MRP3-shRNA versus scrambled shRNA)
T3 sequence (O15438 whole entry): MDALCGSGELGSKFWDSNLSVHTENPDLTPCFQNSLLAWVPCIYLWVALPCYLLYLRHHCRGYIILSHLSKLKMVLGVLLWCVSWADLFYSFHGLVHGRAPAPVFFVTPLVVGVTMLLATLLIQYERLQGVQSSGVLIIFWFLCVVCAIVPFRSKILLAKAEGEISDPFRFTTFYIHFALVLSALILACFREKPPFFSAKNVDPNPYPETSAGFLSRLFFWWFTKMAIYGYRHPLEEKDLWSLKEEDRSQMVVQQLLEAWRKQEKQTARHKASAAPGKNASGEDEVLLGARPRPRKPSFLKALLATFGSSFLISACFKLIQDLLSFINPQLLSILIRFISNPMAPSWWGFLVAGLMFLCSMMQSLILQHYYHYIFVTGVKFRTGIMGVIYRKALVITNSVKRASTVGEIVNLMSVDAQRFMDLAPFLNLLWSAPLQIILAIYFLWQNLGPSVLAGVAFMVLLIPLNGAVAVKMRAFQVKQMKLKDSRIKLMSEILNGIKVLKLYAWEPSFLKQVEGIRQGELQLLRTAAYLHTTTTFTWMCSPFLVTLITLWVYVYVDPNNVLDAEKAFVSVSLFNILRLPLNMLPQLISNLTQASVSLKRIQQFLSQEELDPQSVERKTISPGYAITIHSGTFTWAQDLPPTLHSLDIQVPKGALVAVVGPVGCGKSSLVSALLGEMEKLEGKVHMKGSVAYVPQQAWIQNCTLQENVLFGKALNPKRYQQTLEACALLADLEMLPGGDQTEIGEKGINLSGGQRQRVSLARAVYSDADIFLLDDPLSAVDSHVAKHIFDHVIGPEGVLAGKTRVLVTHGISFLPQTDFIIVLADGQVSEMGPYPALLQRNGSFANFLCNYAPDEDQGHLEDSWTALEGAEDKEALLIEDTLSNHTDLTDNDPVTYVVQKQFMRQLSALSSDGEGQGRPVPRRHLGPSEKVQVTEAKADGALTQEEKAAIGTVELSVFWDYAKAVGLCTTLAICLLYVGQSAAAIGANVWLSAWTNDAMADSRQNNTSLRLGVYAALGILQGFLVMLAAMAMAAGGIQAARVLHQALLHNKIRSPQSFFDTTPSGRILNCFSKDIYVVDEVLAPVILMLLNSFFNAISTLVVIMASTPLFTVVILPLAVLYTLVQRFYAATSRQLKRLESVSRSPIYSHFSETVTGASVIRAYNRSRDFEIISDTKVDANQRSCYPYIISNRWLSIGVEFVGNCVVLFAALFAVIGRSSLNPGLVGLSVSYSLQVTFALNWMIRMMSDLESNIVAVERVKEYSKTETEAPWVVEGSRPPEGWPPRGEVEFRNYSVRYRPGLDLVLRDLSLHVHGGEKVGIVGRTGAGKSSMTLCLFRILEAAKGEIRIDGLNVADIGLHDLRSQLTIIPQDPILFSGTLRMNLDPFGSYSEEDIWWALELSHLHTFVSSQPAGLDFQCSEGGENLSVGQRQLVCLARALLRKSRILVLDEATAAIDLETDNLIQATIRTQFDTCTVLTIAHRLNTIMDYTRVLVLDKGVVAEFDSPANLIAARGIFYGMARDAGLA
Method: as §1, §2, §3

BCRP = biological target: T4, BCRP (Homo sapiens, UniProt Q9UNQ0); experiment: shRNA-mediated BCRP knock-down, glucuronide excretion in HeLa1A1 cells; assay type: cell-based; parameters: BCRP, MRP1, MRP3, and MRP4 were detected in both wild-type HeLa and HeLa1A1 cells; endogenous in cells; host or cells: HeLa1A1 cells; settings: BCRP silencing, DMC 4 μM; for reduction of efflux excretion rate: Fig 8C; for increase of intracellular level: Fig 8D; for decrease in fmet value: Fig 8E
T4 sequence (Q9UNQ0 1-655): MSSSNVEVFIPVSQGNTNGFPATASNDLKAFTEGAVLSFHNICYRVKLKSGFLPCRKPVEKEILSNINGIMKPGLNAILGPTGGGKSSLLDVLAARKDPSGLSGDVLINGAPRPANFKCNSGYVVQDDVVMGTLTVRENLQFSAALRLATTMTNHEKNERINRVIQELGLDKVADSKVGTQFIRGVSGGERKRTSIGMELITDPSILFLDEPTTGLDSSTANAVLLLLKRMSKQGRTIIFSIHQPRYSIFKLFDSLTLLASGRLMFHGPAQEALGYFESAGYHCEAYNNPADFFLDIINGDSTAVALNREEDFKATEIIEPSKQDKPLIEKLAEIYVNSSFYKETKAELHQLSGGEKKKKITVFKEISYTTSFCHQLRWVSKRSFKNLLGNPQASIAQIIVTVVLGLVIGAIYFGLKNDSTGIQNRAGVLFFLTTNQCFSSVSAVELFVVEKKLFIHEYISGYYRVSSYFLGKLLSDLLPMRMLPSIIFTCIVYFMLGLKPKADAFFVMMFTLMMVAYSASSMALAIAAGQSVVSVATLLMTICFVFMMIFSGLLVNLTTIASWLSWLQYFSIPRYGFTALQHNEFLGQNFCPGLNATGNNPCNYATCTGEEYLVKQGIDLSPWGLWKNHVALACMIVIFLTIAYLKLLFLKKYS
Method: as §1, §2, §3

BCRP transporter = system: BCRP transporter; parameters: method as in PMID 12477054; settings: cited from earlier work

| Compound | decrease of efflux excretion rate (MRP1) [%] | decrease of metabolized fraction (MRP1) [%] | increase in intracellular level (MRP1) [%] | decrease of fmet value (MRP3) [%] | decrease in efflux excretion clearance (MRP3) [%] | increase in intracellular level (MRP3) [%] | reduction of efflux excretion rate (BCRP) [%] | increase of intracellular level (BCRP) [%] | decrease in fmet value (BCRP) [%] | further results |
| --- | --- | --- | --- | --- | --- | --- | --- | --- | --- | --- |
| CC(C)=CCC[C@](C)(O)[C@H]1CC[C@]2(C)[C@@H]1[C@H](O)C[C@@H]1[C@@]3(C)CC[C@H](O)C(C)(C)[C@@H]3[C@@H](O)C[C@]12C [protopanaxatriol] |  |  |  |  |  |  |  |  |  | formation of G1 and G2 (UGT1A1; inhibitor 500 μM): significantly inhibited |
| Cc1cn(-c2cc(NC(=O)c3ccc(C)c(Nc4nccc(-c5cccnc5)n4)c3)cc(C(F)(F)F)c2)cn1 [Nilotinib, nilotinib] |  |  |  |  |  |  |  |  |  | formation of G1 and G2 (UGT1A1; inhibitor 10 μM): significantly inhibited |
| CC1(C)[C@@H](O)CC[C@]2(C)[C@H]3C(=O)C=C4[C@@H]5C[C@@](C)(C(=O)O)CC[C@]5(C)CC[C@@]4(C)[C@]3(C)CC[C@@H]12 [glycyrrhetinic acid] |  |  |  |  |  |  |  |  |  | formation of G1 and G2 (UGT1A1; inhibitor 20 μM): significantly inhibited |
| COc1ccc2c3c([nH]c2c1)[C@H](CC(C)C)N1C(=O)[C@H](CCC(=O)OC(C)(C)C)NC(=O)[C@@H]1C3 [Ko143] |  |  |  |  |  |  |  |  |  | IC50 (BCRP transporter): 23 nM |

Now from value to compound, other results behind:

| decrease of efflux excretion rate (MRP1) [%] | decrease of metabolized fraction (MRP1) [%] | increase in intracellular level (MRP1) [%] | decrease of fmet value (MRP3) [%] | decrease in efflux excretion clearance (MRP3) [%] | increase in intracellular level (MRP3) [%] | reduction of efflux excretion rate (BCRP) [%] | increase of intracellular level (BCRP) [%] | decrease in fmet value (BCRP) [%] | Compound | further results |
| --- | --- | --- | --- | --- | --- | --- | --- | --- | --- | --- |
| 36.9 | 29.8 | 36.1 | 27.9 | 26.4 | 32.1 | 33.0 | 51.6 | 24.5 | COc1cc(/C=C/C(=O)CC(=O)/C=C/c2ccc(O[C@@H]3O[C@H](C(=O)O)[C@@H](O)[C@H](O)[C@H]3O)cc2)ccc1O [G2] |  |
| 20.8 | 16.5 | 33.1 | 16.2 | 19.7 | 31.5 | 29.9 | 40.9 | 20.1 | COc1cc(/C=C/C(=O)CC(=O)/C=C/c2ccc(O)cc2)ccc1O[C@@H]1O[C@H](C(=O)O)[C@@H](O)[C@H](O)[C@H]1O [G1] |  |
